Measurements published in patent US8003630B2, “Combinatorial therapies for the treatment of neoplasias using the opioid growth factor receptor” (The Penn State Research Foundation, priority 2004, dated 2011).
Marks after values point to notes of the source that are not given here.

Assays:
[1] = Plasma levels of OGF by radioimmunoassay, SCC-1 tumor mice; type: in vivo, nude mice; conditions: at termination
Method: Plasma samples were assayed in duplicate.

MIA PaCa-2 cells = assay: MIA PaCa-2 xenograft in nude mice, tumor appearance, growth and termination day measurements (Example 7); type: in vivo, BALB/c-nu/nu nude mice
Text: Male 4 week old BALB/c-nu/nu nude mice purchased from Harlan Laboratories (Indianapolis, Ind.) were housed in pathogen-free isolators in the Department of Comparative Medicine at the Penn State University College of Medicine. All procedures were approved by the IACUC committee of the Penn State University College of Medicine and conformed to the guidelines established by NIH. Mice were allowed 48 hr to acclimate prior to beginning experimentation.
MIA PaCa-2 cells (10^6 cells/mouse) were inoculated into nude mice by subcutaneous injection into the right scapular region; mice were not anesthetized for this procedure.
All drugs were dissolved in saline and prepared weekly. Injections were given within 1 hr of tumor cell inoculation.
Mice were weighed weekly throughout the experiment, and observed daily for the presence of tumors. The latency for a visible tumor to appear, and the time until tumors were measurable (i.e., 62.5 mm^3) were recorded. Tumors were measured using calipers every day after tumor appearance. Tumor volume was calculated using the formula w^2×1×π/6, where the length is the longest dimension, and width is the dimension perpendicular to length.
According to IACUC guidelines, mice were terminated when tumors became ulcerated, or tumors grew to 2 cm in diameter. Forty-five days following tumor cell inoculation, all mice were euthanized by an overdose of sodium pentobarbital (100 mg/kg) and killed by cervical dislocation; mice (with tumors) were weighed. Tumors and spleens were removed and weighed, and the lymph nodes, liver, and spleen examined for metastases.

| Compound | OGF levels in plasma versus control mice with tumors [1] | day from which tumor volume differed from controls (MIA PaCa-2 cells; at least p<0.05) [days] | mice with measurable tumors (MIA PaCa-2 cells; day 10) [%] | tumor volumes decreased from control values (MIA PaCa-2 cells; day 45) [%] | Tumor Volume, mm^3 (MIA PaCa-2 cells; day 45, means ± SEM) | Tumor Weight (MIA PaCa-2 cells; day 45, means ± SEM) [g] | Latency to measurable tumor (MIA PaCa-2 cells; means ± SEM) [days] | Latency to visible tumor (MIA PaCa-2 cells; means ± SEM) [days] | Tumor Incidence, day 16 (MIA PaCa-2 cells; mice with tumor/N) | Tumor Incidence, day 10 (MIA PaCa-2 cells; mice with tumor/N, OGF 10 mg/kg daily and/or gemcitabine 120 mg/kg every 3 days i.p.) | weights of tumors decreased from control levels (MIA PaCa-2 cells; termination day (day 45)) [%] |
| --- | --- | --- | --- | --- | --- | --- | --- | --- | --- | --- | --- |
| CC(=O)O[C@H]1C(=O)[C@@]2(C)[C@H]([C@H](OC(=O)c3ccccc3)[C@]3(O)C[C@H](OC(=O)[C@H](O)[C@@H](NC(=O)c4ccccc4)c4ccccc4)C(C)=C1C3(C)C)[C@]1(OC(C)=O)CO[C@@H]1C[C@@H]2O [paclitaxel] | No differences | – | – | – | – | – | – | – | – | – | – |
| [Met^5]-enkephalin [OGF] | – | 14 | 60 | 46 | 4849 ± 490*** mm^3 | 3.5 ± 0.5 | 14.2 ± 0.8 | 10.7 ± 0.8 | 10/10 | 6/10 | 36 |
